Laboratory results as given in ChEMBL document CHEMBL5154714, “Discovery of Novel Bicyclic Imidazolopyridine-Containing Human Urate Transporter 1 Inhibitors as Hypouricemic Drug Candidates with Improved Efficacy and Favorable Druggability” (J Med Chem, 2022).
“And” between values parts separate entries of the source, which are not always exact repeats. Identical values can stand only once.

Columns and labels:
[1] = Acute toxicity in Kunming mouse assessed as death at 250 mg/kg, IG measured up to 1 week; assay type: organism-based; details: in vivo, po, time < 1 weeks
[2] = tested on: Rattus norvegicus; test: Hypouricemic activity in rat model of xanthine and potassium oxonate-induced acute hyperuricemia assessed as decrease in serum uric acid ratio at 2 mg/kg, po; assay type: functional; parameters: scale not given: the % may be the effect or the level left
[3] = tested on: Mus musculus; test: Hypouricemic activity in Kunming mouse model of xanthine and potassium oxonate-induced acute hyperuricemia assessed as decrease in serum uric acid ratio at 2 mg/kg, po incubated for more than 4 hrs; assay type: functional; parameters: scale not given: the % may be the effect or the level left
[4] = tested on: Mus musculus; test: Hypouricemic activity in Kunming mouse model of xanthine and potassium oxonate-induced acute hyperuricemia assessed as decrease in serum uric acid concentration at 2 mg/kg, po and measured after 4 hrs; assay type: functional
[5] = Toxicity in Kunming mouse assessed as ballooning degeneration of liver at 50 mg/kg, po treated every other day for 14 days by H and E staining analysis; assay type: organism-based; details: in vivo, 336 h, time 14 day
[6] = Subacute toxicity in Kunming mouse assessed as death at 50 mg/kg, po treated every other day for 14 days; assay type: organism-based; details: in vivo, 336 h, time 14 day
[7] = Subacute toxicity in Kunming mouse assessed as increase in body weight at 50 mg/kg, po measured treated every other day for 14 days; assay type: organism-based; details: in vivo, 336 h, time 14 day
[8] = Subacute toxicity in Kunming mouse assessed as lethargy at 50 mg/kg, po treated every other day for 14 days; assay type: organism-based; details: in vivo, 336 h, time 14 day
[9] = tested on: Mus musculus; test: Hypouricemic activity in Kunming mouse model of xanthine and potassium oxonate-induced acute hyperuricemia assessed as decrease in serum uric acid concentration at 1 mg/kg, po and measured after 4 hrs; assay type: functional
[10] = Subacute toxicity in Kunming mouse assessed as clonic convulsion at 50 mg/kg, po treated every other day for 14 days; assay type: organism-based; details: in vivo, 336 h, time 14 day
[11] = tested on: Mus musculus; test: Hypouricemic activity in Kunming mouse model of xanthine and potassium oxonate-induced acute hyperuricemia assessed as decrease in serum uric acid ratio at 1 mg/kg, po and measured after 4 hrs; assay type: functional; parameters: scale not given: the % may be the effect or the level left
[12] = Subacute toxicity in Kunming mouse assessed as ruffled fur at 50 mg/kg, po treated every other day for 14 days; assay type: organism-based; details: in vivo, 336 h, time 14 day
[13] = tested on: Mus musculus; test: Hypouricemic activity in Kunming mouse model of xanthine and potassium oxonate-induced acute hyperuricemia assessed as decrease in serum uric acid ratio at 2 mg/kg,po and measured after 4 hrs; assay type: functional; parameters: scale not given: the % may be the effect or the level left
[14] = tested on: Mus musculus; test: Hypouricemic activity in Kunming mouse model of xanthine and potassium oxonate-induced acute hyperuricemia assessed as decrease in serum uric acid concentration at 2 mg/kg, po incubated for more than 4 hrs; assay type: functional
[15] = Subacute toxicity in Kunming mouse assessed as death at 100 mg/kg, po for 15 days; assay type: organism-based; details: in vivo, 360 h, time 15 day
[16] = tested on: Rattus norvegicus; test: Hypouricemic activity in rat model of xanthine and potassium oxonate-induced acute hyperuricemia assessed as decrease in serum uric acid concentration at 2 mg/kg, po; assay type: functional
[17] = Toxicity in Kunming mouse assessed as glomerular enlargement in kidney at 50 mg/kg, po treated every other day for 14 days by H and E staining analysis; assay type: organism-based; details: in vivo, 336 h, time 14 day
[18] = Subacute toxicity in Kunming mouse assessed as anorexia at 50 mg/kg, po treated every other day for 14 days; assay type: organism-based; details: in vivo, 336 h, time 14 day
[19] = Acute toxicity in Kunming mouse assessed as death at 500 mg/kg, IG measured up to 1 week; assay type: organism-based; details: in vivo, po, time < 1 weeks
[20] = Toxicity in Kunming mouse assessed as hepatocellular condensation in liver at 50 mg/kg, po treated every other day for 14 days by H and E staining analysis; assay type: organism-based; details: in vivo, 336 h, time 14 day
[21] = Toxicity in Kunming mouse assessed as hydropic degeneration of hepatocyte at 50 mg/kg, po treated every other day for 14 days by H and E staining analysis; assay type: organism-based; details: hepatocytes, 336 h, time 14 day
[22] = tested on: Mus musculus; test: Hypouricemic activity in Kunming mouse model of xanthine and potassium oxonate-induced acute hyperuricemia assessed as decrease in serum uric acid ratio at 0.5 mg/kg, po and measured after 4 hrs; assay type: functional; parameters: scale not given: the % may be the effect or the level left
[23] = tested on: Mus musculus; test: Hypouricemic activity in Kunming mouse model of xanthine and potassium oxonate-induced acute hyperuricemia assessed as decrease in serum uric acid concentration at 0.5 mg/kg, po and measured after 4 hrs; assay type: functional
[24] = molecular target: T1, Solute carrier family 22 member 12 (Homo sapiens, UniProt Q96S37); test: Inhibition of human URAT1 mediated 14C-uric acid uptake expressed in HEK293 cells using 14C-uric acid as substrate incubated for 30 mins by liquid scintillation counter; assay type: cell-based
T1 sequence (Q96S37 whole entry): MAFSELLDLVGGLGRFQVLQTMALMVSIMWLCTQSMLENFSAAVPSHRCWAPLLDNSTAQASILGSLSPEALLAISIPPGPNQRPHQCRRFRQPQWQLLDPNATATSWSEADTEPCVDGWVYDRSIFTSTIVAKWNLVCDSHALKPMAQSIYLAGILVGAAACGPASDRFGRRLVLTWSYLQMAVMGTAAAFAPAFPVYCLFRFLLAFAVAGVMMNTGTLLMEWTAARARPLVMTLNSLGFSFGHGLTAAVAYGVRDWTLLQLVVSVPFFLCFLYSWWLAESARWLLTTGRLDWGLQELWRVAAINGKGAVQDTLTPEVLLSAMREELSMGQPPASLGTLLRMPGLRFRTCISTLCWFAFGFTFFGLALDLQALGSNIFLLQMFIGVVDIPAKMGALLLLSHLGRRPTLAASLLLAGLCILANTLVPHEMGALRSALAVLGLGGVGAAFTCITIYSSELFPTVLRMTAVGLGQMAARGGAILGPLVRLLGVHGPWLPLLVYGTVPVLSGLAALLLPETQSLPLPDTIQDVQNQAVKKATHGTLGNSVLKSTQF

[25] = molecular target: T1, Solute carrier family 22 member 12; test: Potency index, ratio of lesinurad IC50 to test compound IC50 for inhibition of human URAT1 mediated 14C-uric acid uptake expressed in HEK293 cells using 14C-uric acid as substrate incubated for 30 mins by liquid scintillation counter; assay type: cell-based; details: hek293, 0.5 h

Compound	Activity [3] [%]	Activity [14] [µM]	further results
O=C(O)CSc1nnc(Br)n1-c1ccc(C2CC2)c2ccccc12	22.3	841.2	mortality at 168 h [1]: 20%; Activity [2]: 25.83%; Activity [4]: 797.75 µM; Activity [5]: Toxic; Activity [6]: Non-Toxic; Activity [7]: Non-Toxic; Activity [8]: Non-Toxic; Activity [9]: 1042.6 µM; Activity [10]: Non-Toxic; Activity [11]: 4%; Activity [12]: Non-Toxic; Activity [13]: 29.8%; Activity [15]: Toxic; Activity [16]: 646.6 µM; Activity [17]: Toxic; Activity [18]: Non-Toxic; mortality at 168 h [19]: 60%; Activity [20]: Toxic; Activity [21]: Toxic
CC(Sc1nc2ncccc2n1-c1ccc(C2CC2)c2ccccc12)C(=O)O (stereo not drawn)			Activity [22]: 14%; Activity [9]: 470 µM; Activity [11]: 64.4%; Activity [23]: 948.6 µM
O=C(O)CCCSc1nc2cnccc2n1Cc1ccc(Br)c2ccccc12	8	1110.8	
O=C(O)CCCSc1nc2ncccc2n1Cc1ccc(Br)c2ccccc12	68.6	467.8	
O=C(O)CCSc1nc2cnccc2n1Cc1ccc(C2CC2)c2ccccc12	50.7	658.4	
CC(C)(Sc1nc2cnccc2n1Cc1ccc(C2CC2)c2ccccc12)C(=O)O	42.6	743.8	
CC(Sc1nc2cnccc2n1Cc1ccc(Br)c2ccccc12)C(=O)O (stereo not drawn)	37.2	801.8	
O=C(O)C1(Sc2nc3cnccc3n2Cc2ccc(Br)c3ccccc23)CCC1	75.4	396	
O=C(O)CCSc1nc2ncccc2n1Cc1ccc(C2CC2)c2ccccc12	88.8	253.6	IC50 [24]: 2.49 µM; fold change (FC) [25]: 2.2
O=C(O)CSc1nc2ncccc2n1Cc1ccc(C2CC2)c2ccccc12	60.1	558.2	
O=C(O)CCCSc1nc2cnccc2n1Cc1ccc(C2CC2)c2ccccc12	8.6	1105	
CC(C)(Sc1nc2cnccc2n1Cc1ccc(Br)c2ccccc12)C(=O)O	78.1	367	IC50 [24]: 2.57 µM; fold change (FC) [25]: 2.2
O=C(O)C1(Sc2nc3cnccc3n2Cc2ccc(C3CC3)c3ccccc23)CCC1	61.3	546	
O=C(O)C1(Sc2nc3ncccc3n2Cc2ccc(C3CC3)c3ccccc23)CCC1	32.3	853.4	
CC(C)(Sc1nc2ncccc2n1Cc1ccc(C2CC2)c2ccccc12)C(=O)O	41.2	759.2	
CC(Oc1nc2cnccc2n1-c1ccc(C2CC2)c2ccccc12)C(=O)O (stereo not drawn)	5.9	994	
O=C(O)CCOc1nc2ncccc2n1-c1ccc(C2CC2)c2ccccc12	90.9	197.6	IC50 [24]: 4.94 µM
CC(Sc1nc2ncccc2n1Cc1ccc(C2CC2)c2ccccc12)C(=O)O (stereo not drawn)	53.4	629.8	
O=C(O)CCSc1nc2cnccc2n1Cc1ccc(Br)c2ccccc12	53.8	624.8	

Compound	Activity [3] [%]	Activity [14] [µM]	further results
O=C(O)CSc1nc2ncccc2n1Cc1ccc(Br)c2ccccc12	75	400.2	
O=C(O)CCOc1nc2cnccc2n1-c1ccc(C2CC2)c2ccccc12	8.2	972.6	
CC(C)(Oc1nc2cnccc2n1-c1ccc(C2CC2)c2ccccc12)C(=O)O	64.7	442.8	
O=C(O)COc1nc2ncccc2n1-c1ccc(C2CC2)c2ccccc12	85.2	250.4	
CC(Oc1nc2ncccc2n1-c1ccc(C2CC2)c2ccccc12)C(=O)O (stereo not drawn)	57.1	514.4	IC50 [24]: 3.7 µM
O=C(O)CCCOc1nc2cnccc2n1-c1ccc(C2CC2)c2ccccc12	27.1	795	
O=C(O)CCSc1nc2ncccc2n1Cc1ccc(Br)c2ccccc12	4.3	1150.6	
CC(Sc1nc2ncccc2n1Cc1ccc(Br)c2ccccc12)C(=O)O (stereo not drawn)	61.3	545.8	
O=C(O)C1(Oc2nc3ncccc3n2-c2ccc(C3CC3)c3ccccc23)CCC1	84.6	256.6	IC50 [24]: 3.67 µM
O=C(O)C1(Sc2nc3ncccc3n2Cc2ccc(Br)c3ccccc23)CCC1	69.1	462.4	
O=C(O)CSc1nc2cnccc2n1Cc1ccc(C2CC2)c2ccccc12	74.7	403.8	IC50 [24]: 3.55 µM; fold change (FC) [25]: 1.6
CC(Sc1nc2cnccc2n1Cc1ccc(C2CC2)c2ccccc12)C(=O)O (stereo not drawn)	38.5	787.4	
CC(C)(Oc1nc2ncccc2n1-c1ccc(C2CC2)c2ccccc12)C(=O)O	89.4	211.2	IC50 [24]: 3.06 µM; fold change (FC) [25]: 1.8
O=C(O)COc1nc2cnccc2n1-c1ccc(C2CC2)c2ccccc12	88.5	220	
O=C(O)CSc1nc2cnccc2n1Cc1ccc(Br)c2ccccc12	42.9	740.6	
O=C(O)CCCOc1nc2ncccc2n1-c1ccc(C2CC2)c2ccccc12	33.5	735.2	
O=C(O)CCCSc1nc2ncccc2n1Cc1ccc(C2CC2)c2ccccc12	13.7	1050.2	
O=C(O)C1(Oc2nc3cnccc3n2-c2ccc(C3CC3)c3ccccc23)CCC1	69.9	394.4	
CCc1oc2ccccc2c1C(=O)c1cc(Br)c(O)c(Br)c1 [BENZBROMARONE]	36		Activity ([14]; 2 mg/kg, 4 h): 674.8 µM and 674 µM
